According to patent US5420289A, “Substituted indole-, indene-, pyranoindole- and tetrahydrocarbazole-alkanoic acid derivatives as inhibitors of PLA2 and lipoxygenase” (American Home Products Corporation, priority 1993, dated 1995):

What was measured:
human platelet PLA2 = molecular target: T1, human platelet PLA2 (Homo sapiens, UniProt P14555); assay: in vitro isolated phospholipase A2 assay, human platelet PLA2 (Example 74); assay type: biochemical; parameters: dose or concentration left out as unconfirmed; conditions: read-out: % Inhibition, HP (human platelet)
T1 construct: Semi-purified human platelet acid extract PLA2; from tissue; host or cells: human platelets (semi-purified acid extract)
T1 sequence (P14555 21-144): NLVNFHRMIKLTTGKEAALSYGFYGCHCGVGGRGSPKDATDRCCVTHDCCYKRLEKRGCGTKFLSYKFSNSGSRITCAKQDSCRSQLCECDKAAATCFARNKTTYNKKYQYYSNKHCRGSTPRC
Experimental: (§1) The compounds of the invention are tested in an in vitro isolated phospholipase A2 assay to determine the ability of the test compounds to inhibit the release of arachidonic acid from an arachidonic acid-containing substrate by the action of phospholipase A2 enzyme from human and non-human sources.
(§2) This assay is carried out as follows:
(§3) Into a 15 mL polypropylene tube are added the following:
(§4) ^6 Two human PLA2 enzymes are used:
a) Semi-purified human platelet acid extract PLA2 (in 10 mM
sodium acetate buffer, pH 4.5). Remove protein precipitate by
centrifugation at about 2200 rpm for 10 minutes.
(§5) Incubate the 100mL reaction mixture for 10 minutes at 37° C. in a shaking water bath. The reaction is terminated by the addition of 2 mL tetrahydrofuran, followed by vortexlag. NH2 columns (100 mg/mL--Analytichem International) are conditioned with 0.5 mL tetrahydrofuran followed by 0.5 mL tetrahydrofuran/water (2 mL:0.1 mL, v/v).
(§6) The sample is loaded onto the columns and slowly drawn through them. The hydrolyzed arachidonic acid retained in the columns is eluted therefrom with 1 mL tetrahydrofuran/glacial acetic acid (2%). The arachidonic acid is transferred to scintillation vials and quantitated by b-counting analysis. A "total counts" sample is prepared by pipetting […] ^3 H-arachidonate E. coli directly into a scintillation vial to which is added 1 mL tetrahydrofuran. 10 mL aquasol (scintillation cocktail) is added to all samples. [formula]

[1] = tested on: 5-lipoxygenase in human whole blood; assay: inhibition of 5-lipoxygenase in human whole blood (Example 79); assay type: cell-based; conditions: for % Inhibition of LTB4: 25 μM; for IC50: human whole blood, read-out: IC50 (inhibition of LTB4)
Experimental: The assay of this Example measures the ability of the compounds tested to inhibit 5-lipoxygenase in human whole blood.
as §2
Blood is obtained in 50-100 ml quantities from male donors. White blood cell counts and differentials are made. Two ml of blood are placed in a 15 ml polypropylene test tube. Compounds are solubilized in dimethylsulfoxide and diluted 1:10 in 10% bovine serum albumin in phosphate buffered saline, pH 7.4 resulting in a final dimethylsulfoxide concentration of 0.1% in the blood. Then, compounds are added to the blood in a shaking water bath at 37° C. for 10 minutes prior to the addition of […] calcium ionophore (A23187; Sigma). After ionophore administration, whole blood samples are mixed and incubated for 20 minutes at 37° C. in a shaking water bath. Incubation is terminated by placing samples in an ice bath and immediately adding ethylene glycol-bis-(b-aminoethyl ether)-N,N,N',N'-tetraacetic acid (10 mM). Samples are mixed and centrifuged at 1200 × g for 15 minutes at 4° C. Preparation of samples for evaluation by RIA or ELISA is carried out by the following protocol. Plasma is removed from sample tubes, placed in 15 ml polypropylene test tubes containing 8 ml methanol, and then vortexed to precipitate protein. Samples are stored at -70° C. overnight. The next day, samples are centrifuged at 200 × g for 15 minutes at 4° C. to pellet the precipitate. Samples are dried in a Savant speed vac concentrator, reconstituted to original volume with ice cold RIA or ELISA buffer, and stored at -70° C. until assayed. The assay for eicosanoids (LTB4, T×B2, and PGE2) is performed as described by the manufacturer of the [^3 H]-RIA kit or ELISA kit (LTB4 -Amersham, TxB2 and PGE2 - Caymen Chemical).
The total eicosanoid level in 2 ml of blood is calculated and reported as ng/10^6 neutrophils. […] Drug effects are expressed as percent change from control values.
Compounds tested in vitro are solubilized in dimethylsulfoxide and diluted 1:10 in 10% bovine serum albumin in phosphate buffer saline resulting in a final dimethylsulfoxide concentration of 0.1% i n the blood.

[2] = molecular target: T2, human synovial fluid PLA2 (Homo sapiens, UniProt P14555); assay: in vitro isolated phospholipase A2 assay, human synovial fluid PLA2 (Example 74); assay type: biochemical; parameters: inhibition / % Inhibition, HSF (human synovial fluid): dose or concentration left out as unconfirmed; conditions: read-out: % Inhibition, HSF (human synovial fluid)
T2 sequence (P14555 21-144): T1 sequence (P14555 21-144)
Experimental: as §1, §2, §3, §4
b) Purified human synovial fluid.
as §5, §6

Structure (SMILES) | inhibition (human platelet PLA2) [%] | % Inhibition of LTB4 [1] [%] | inhibition [2] [%] | IC50 [1] [µM]
Cc1c(CC(=O)O)c2cc(OCc3nc4ccccc4s3)ccc2n1Cc1ccccc1 [Example 51, 5-(2-Benzothiazolylmethoxy)-1-(phenylmethyl)-2-methyl-1H-indole-3-acetic acid] | 41 | 5 | 88 | 
Cc1c(CCO)c2cc(OCc3csc(-c4ccccc4)n3)ccc2n1Cc1ccccc1 [Example 55, 5-[(2-Phenyl-4-thiazolyl)methoxy]-1-(phenylmethyl)-2-methyl-1H-indole-3-ethanol] | 13 | 19 | 4 | 
COc1cccc(Cn2c(C)c(CC(=O)O)c3cc(OCc4csc(-c5ccccc5)n4)ccc32)c1 [Example 60, 5-[(2-Phenyl-4-thiazolyl)methoxy)-1-[[(3-methoxy)phenyl]methyl]-2-methyl-1H-indole-3-acetic acid] | 3 | 35 | 84 | 
CONC(=O)Cc1c(C)n(Cc2ccc(Cl)cc2)c2ccc(OCc3nc4ccccc4s3)cc12 [Example 47, 5-(2-Benzothiazolylmethoxy)-1-[(4-chlorophenyl)methyl]-N-methoxy-2-methyl-1H-indole-3-acetamide hemihydrate.] | 5 | 31 | 2 | 
CC(=O)OCCc1c(C)n(Cc2ccccc2)c2ccc(OCc3csc(-c4ccccc4)n3)cc12 [Example 56, 5-[(2-Phenyl-4-thiazolyl)methoxy]-1-(phenylmethyl)-2-methyl-1H-indole-3-ethanol acetate ester] | 2 | 2 |  | 
Cc1c(CC(=O)N(C)O)c2cc(OCc3nc4ccccc4s3)ccc2n1Cc1ccc(Cl)cc1 [Example 49, 5-(2-Benzothiazolylmethoxy)-1-[(4-chlorophenyl)methyl]N-hydroxyl-N,2-dimethyl-1H -indole-3-acetamide] | 6 | 61 | 4 | 12.3
Cc1c(CC(N)=O)c2cc(OCc3nc4ccccc4s3)ccc2n1Cc1ccc(Cl)cc1 [Example 45, 5-(2-Benzothiazolylmethoxy)-1-[(4-chlorophenyl)methyl]-2-methyl-1H-indole-3-acetamide] | 33 |  | 23 | 
Cc1c(CC(=O)NOCc2ccccc2)c2cc(OCc3nc4ccccc4s3)ccc2n1Cc1ccc(Cl)cc1 [Example 48, 5-(2-Benzothiazolylmethoxy)-1-[(4-chlorophenyl)methyl]-N-(phenylmethoxy)-2-methyl-1H-indole-3-acetamide] | 4 |  | 54 | 
Cc1c(CC(=O)O)c2cc(OCc3coc(-c4ccccc4)n3)ccc2n1Cc1ccccc1 [Example 71, 5-[(2-Phenyl-4-oxazolyl)methoxy]-1-(phenylmethyl)-2-methyl-1H-indole-3-acetic acid hemihydrate.] | 44 |  | 91 | 
Cc1c(CC(=O)O)c2cc(OCc3csc(-c4ccc(Cl)cc4)n3)ccc2n1Cc1ccc(Cl)cc1 [Example 69, 5-[[2-(4-Chlorophenyl)-4-thiazolyl]methoxy]-1-[(4chlorophenyl)methyl]-2-methyl-1H-indole-3-acetic acid] | 8 |  | 54 | 
Cc1c(CC(=O)NO)c2cc(OCc3nc4ccccc4s3)ccc2n1Cc1ccc(Cl)cc1 [Example 46, 5-(2-Benzothiazolylmethoxy)-1-[(4-chlorophenyl)methyl]-N-hydroxyl-2-methyl-1H-indole-3-acetamide] | 13 | 30 | 48 | 14.9
Cc1c(CC(=O)O)c2cc(OCc3csc(-c4ccccc4)n3)ccc2n1Cc1csc(-c2ccc(Cl)cc2)n1 [Example 65, 5-[(2-Phenyl-4-thiazolyl)methoxy]-1-[[2-(4-chlorophenyl)-4-thiazolyl]methyl]-2-methyl-1H-indole-3-acetic acid] | 85 | 22 | 89 | 
CCOC(=O)Cc1c(C)n(Cc2csc(-c3ccc(Cl)cc3)n2)c2ccc(OCc3csc(-c4ccccc4)n3)cc12 [Example 64, 5-[(2-Phenyl-4-thiazolyl)methoxy]-1-[[2-(4-chlorophenyl)-4-thiazolyl]methyl]-2-methyl-1H-indole-3-acetic acid ethyl ester] | 1 |  | 4 | 
CCOC(=O)Cc1c(C)n(Cc2ccc3ccccc3c2)c2ccc(OCc3csc(-c4ccccc4)n3)cc12 [Example 66, 5-[(2-Phenyl-4-thiazolyl)methoxy]-1-(2-naphthalenylmethyl)-2-methyl-1H-indole-3acetic acid ethyl ester] | 1 |  | 6 | 
CSc1ccc(Cn2c(C)c(CC(=O)O)c3cc(OCc4nc5ccccc5s4)ccc32)cc1 [Example 54, 5-(2-Benzothiazolylmethoxy)-1-[[4-(methylthio)phenyl]methyl]-2-methyl-1H-indole-3-acetic acid] | 2 | 11 | 44 | 
